Experimental data as given in patent US10081624B2, “Heterocyclic compound” (Takeda Pharmaceutical Company Limited, priority 2014, dated 2018).

The compounds below were run against T1, HDAC6 enzyme (Homo sapiens, UniProt Q9UBN7) (assay: HDAC6 enzyme inhibitory assay (HDAC-Glo I/II Assay kit)). Conditions: 1 μM test compound; read-out: HDAC6 inhibitory rate (%) (1 μM).
T1 construct: prepared by transducing full length HDAC1 and HDAC6 genes into Sf-9 insect cells; GST; purchased SignalChem; host or cells: Sf-9 insect cells
T1 sequence (Q9UBN7 1-1215): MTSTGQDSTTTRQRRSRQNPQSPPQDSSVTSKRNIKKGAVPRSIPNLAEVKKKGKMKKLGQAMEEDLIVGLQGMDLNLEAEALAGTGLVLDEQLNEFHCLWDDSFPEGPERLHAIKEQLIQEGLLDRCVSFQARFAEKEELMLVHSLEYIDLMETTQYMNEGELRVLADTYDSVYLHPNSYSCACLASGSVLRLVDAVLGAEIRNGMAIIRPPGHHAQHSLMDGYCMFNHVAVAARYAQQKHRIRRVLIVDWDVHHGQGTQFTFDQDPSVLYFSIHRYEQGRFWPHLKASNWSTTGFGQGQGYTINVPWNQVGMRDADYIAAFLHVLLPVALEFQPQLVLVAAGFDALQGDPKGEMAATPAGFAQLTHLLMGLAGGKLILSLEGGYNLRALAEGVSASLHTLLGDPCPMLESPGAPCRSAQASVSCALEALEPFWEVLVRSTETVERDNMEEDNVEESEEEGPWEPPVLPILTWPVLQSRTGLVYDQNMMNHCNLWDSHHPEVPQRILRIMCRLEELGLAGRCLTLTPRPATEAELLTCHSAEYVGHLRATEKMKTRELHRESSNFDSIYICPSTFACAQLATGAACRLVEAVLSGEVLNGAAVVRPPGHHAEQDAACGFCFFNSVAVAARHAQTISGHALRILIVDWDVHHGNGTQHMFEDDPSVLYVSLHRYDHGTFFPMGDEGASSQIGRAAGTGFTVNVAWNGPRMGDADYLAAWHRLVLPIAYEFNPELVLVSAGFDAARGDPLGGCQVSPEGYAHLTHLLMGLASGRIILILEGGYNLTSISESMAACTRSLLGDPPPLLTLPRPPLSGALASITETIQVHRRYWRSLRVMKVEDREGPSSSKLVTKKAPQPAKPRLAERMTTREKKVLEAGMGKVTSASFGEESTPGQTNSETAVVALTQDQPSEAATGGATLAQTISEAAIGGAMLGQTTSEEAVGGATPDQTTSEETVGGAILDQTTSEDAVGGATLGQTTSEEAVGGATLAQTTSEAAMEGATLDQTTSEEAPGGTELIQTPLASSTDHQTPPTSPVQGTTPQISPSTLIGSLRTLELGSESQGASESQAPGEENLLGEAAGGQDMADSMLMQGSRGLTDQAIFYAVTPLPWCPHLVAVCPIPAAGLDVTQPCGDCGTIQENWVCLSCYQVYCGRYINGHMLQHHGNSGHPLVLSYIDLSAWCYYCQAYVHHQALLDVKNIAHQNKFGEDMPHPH
Format: biochemical
Summary of the method: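 Luminescent HDAC-Glo I/II read-out after 20 min room-temperature reaction with substrate-developer, following a 60 min room-temperature enzyme–compound preincubation. Enzymes: full-length HDAC1 or HDAC6 from Sf-9 cells, GST-purified; buffer pH 7.5 Tris with NaCl, glutathione, 0.01% Tween-20. No-enzyme wells defined 100% inhibition.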

Row | SMILES | inhibition at 1 µM
1 | Cc1cc(C(=O)N2CCOC[C@H]2CNC(=O)c2ccc(-c3noc(C(F)(F)F)n3)cc2)n(C)n1 [Example 135, N-(((3R)-4-((1,3-dimethyl-1H-pyrazol-5-yl)carbonyl)morpholin-3-yl)methyl)-4-(5-(trifluoromethyl)-1,2,4-oxadiazol-3-yl)benzamide] | 91%
2 | O=C(NCC1COCCN1C(=O)c1ccncc1)c1ccc(-c2noc(C(F)(F)F)n2)cc1 (stereo in doubt) [Example 120, N-(((3R)-4-isonicotinoylmorpholin-3-yl)methyl)-4-(5-(trifluoromethyl)-1,2,4-oxadiazol-3-yl)benzamide] | 96%
3 | Cc1ccsc1C(=O)N1CCOC[C@H]1CNC(=O)c1ccc(-c2noc(C(F)(F)F)n2)cc1 [Example 146, N-(((3R)-4-((3-methyl-2-thienyl)carbonyl)morpholin-3-yl)methyl)-4-(5-(trifluoromethyl)-1,2,4-oxadiazol-3-yl)benzamide] | 94%
4 | Cn1cnc(C(=O)N2CCOCC2CNC(=O)c2ccc(-c3noc(C(F)(F)F)n3)cc2)c1 (stereo not shown) [Example 17, N-((4-((1-methyl-1H-imidazol-4-yl)carbonyl)morpholin-3-yl)methyl)-4-(5-(trifluoromethyl)-1,2,4-oxadiazol-3-yl)benzamide] | 61%
5 | Cc1csc(C(=O)N2CCOC[C@@H]2CNC(=O)c2ccc(-c3noc(C(F)(F)F)n3)cc2)c1 [Example 73, N-(((3S)-4-((4-methyl-2-thienyl)carbonyl)morpholin-3-yl)methyl)-4-(5-(trifluoromethyl)-1,2,4-oxadiazol-3-yl)benzamide] | 98%
6 | Cn1cc(C(=O)N2CCOC[C@H]2CNC(=O)c2ccc(-c3noc(C(F)(F)F)n3)cc2)cn1 [Example 138, N-(((3R)-4-((1-methyl-1H-pyrazol-4-yl)carbonyl)morpholin-3-yl)methyl)-4-(5-(trifluoromethyl)-1,2,4-oxadiazol-3-yl)benzamide] | 85%
7 | Cn1nc(C(F)(F)F)cc1C(=O)N1CCOC[C@H]1CNC(=O)c1ccc(-c2noc(C(F)(F)F)n2)cc1 [Example 136, N-(((3R)-4-((1-methyl-3-(trifluoromethyl)-1H-pyrazol-5-yl)carbonyl)morpholin-3-yl)methyl)-4-(5-(trifluoromethyl)-1,2,4-oxadiazol-3-yl)benzamide] | 92%
8 | Cc1cc(C(=O)N2CCOC[C@H]2CNC(=O)c2ccc(-c3noc(C(F)(F)F)n3)cc2)cc(O)n1 [Example 122, N-(((3R)-4-(2-hydroxy-6-methylisonicotinoyl)morpholin-3-yl)methyl)-4-(5-(trifluoromethyl)-1,2,4-oxadiazol-3-yl)benzamide] | 36%
9 | Cn1ccnc1C(=O)N1CCOCC1CNC(=O)c1ccc(-c2noc(C(F)(F)F)n2)cc1 (stereo not shown) [Example 16, N-((4-((1-methyl-1H-imidazol-2-yl)carbonyl)morpholin-3-yl)methyl)-4-(5-(trifluoromethyl)-1,2,4-oxadiazol-3-yl)benzamide] | 93%

The remaining lines, values ahead:

Row | inhibition at 1 µM | SMILES
10 | 99% | Cc1ccsc1C(=O)N1CCOC[C@@H]1CNC(=O)c1ccc(-c2noc(C(F)(F)F)n2)cn1 [Example 198, N-(((3S)-4-((3-methyl-2-thienyl)carbonyl)morpholin-3-yl)methyl)-5-(5-(trifluoromethyl)-1,2,4-oxadiazol-3-yl)pyridine-2-carboxamide]
11 | 93% | O=C(NCC1COCCN1C(=O)C1CCOCC1)c1ccc(-c2noc(C(F)(F)F)n2)s1 (stereo not shown) [Example 255, N-((4-(tetrahydro-2H-pyran-4-ylcarbonyl)morpholin-3-yl)methyl)-5-(5-(trifluoromethyl)-1,2,4-oxadiazol-3-yl)thiophene-2-carboxamide]
12 | 77% | Cn1ccnc1C(=O)N1CCOCC1CNC(=O)c1ccc(-c2noc(C(F)(F)F)n2)s1 (stereo not shown) [Example 228, N-((4-((1-methyl-1H-imidazol-2-yl)carbonyl)morpholin-3-yl)methyl)-5-(5-(trifluoromethyl)-1,2,4-oxadiazol-3-yl)thiophene-2-carboxamide]
13 | 88% | Cc1cc(C(=O)N2CCOCC2CNC(=O)c2ccc(-c3noc(C(F)(F)F)n3)s2)n(C)n1 (stereo not shown) [Example 230, N-((4-((1,3-dimethyl-1H-pyrazol-5-yl)carbonyl)morpholin-3-yl)methyl)-5-(5-(trifluoromethyl)-1,2,4-oxadiazol-3-yl)thiophene-2-carboxamide]
14 | 92% | O=C(NCC1COCCN1C(=O)c1ccccn1)c1ccc(-c2noc(C(F)(F)F)n2)s1 (stereo not shown) [Example 224, N-((4-(pyridin-2-ylcarbonyl)morpholin-3-yl)methyl)-5-(5-(trifluoromethyl)-1,2,4-oxadiazol-3-yl)thiophene-2-carboxamide]
15 | 78% | Cn1cc(C(=O)N2CCOCC2CNC(=O)c2ccc(-c3noc(C(F)(F)F)n3)s2)cn1 (stereo not shown) [Example 233, N-((4-((1-methyl-1H-pyrazol-4-yl)carbonyl)morpholin-3-yl)methyl)-5-(5-(trifluoromethyl)-1,2,4-oxadiazol-3-yl)thiophene-2-carboxamide]
16 | 89% | Cc1cc(C(=O)N2CCOCC2CNC(=O)c2ccc(-c3noc(C(F)(F)F)n3)s2)on1 (stereo not shown) [Example 240, N-((4-((3-methyl-1,2-oxazol-5-yl)carbonyl)morpholin-3-yl)methyl)-5-(5-(trifluoromethyl)-1,2,4-oxadiazol-3-yl)thiophene-2-carboxamide]
17 | 91% | O=C(NCC1COCCN1C(=O)c1cccc2c1OCC2)c1ccc(-c2noc(C(F)(F)F)n2)s1 (stereo not shown) [Example 252, N-((4-(2,3-dihydro-1-benzofuran-7-ylcarbonyl)morpholin-3-yl)methyl)-5-(5-(trifluoromethyl)-1,2,4-oxadiazol-3-yl)thiophene-2-carboxamide]
18 | 92% | Cn1nc(C(F)(F)F)cc1C(=O)N1CCOCC1CNC(=O)c1ccc(-c2noc(C(F)(F)F)n2)s1 (stereo not shown) [Example 231, N-((4-((1-methyl-3-(trifluoromethyl)-1H-pyrazol-5-yl)carbonyl)morpholin-3-yl)methyl)-5-(5-(trifluoromethyl)-1,2,4-oxadiazol-3-yl)thiophene-2-carboxamide]
19 | 90% | O=C(NC[C@@H]1COCCN1C(=O)C1CCOC1)c1ccc(-c2noc(C(F)(F)F)n2)cc1 (stereo partly drawn) [Example 151, N-(((3R)-4-(tetrahydrofuran-3-ylcarbonyl)morpholin-3-yl)methyl)-4-(5-(trifluoromethyl)-1,2,4-oxadiazol-3-yl)benzamide]
20 | 90% | N#Cc1ccc(C(=O)N2CCOCC2CNC(=O)c2ccc(-c3noc(C(F)(F)F)n3)s2)cc1 (stereo not shown) [Example 219, N-((4-(4-cyanobenzoyl)morpholin-3-yl)methyl)-5-(5-(trifluoromethyl)-1,2,4-oxadiazol-3-yl)thiophene-2-carboxamide]
21 | 93% | O=C(NCC1COCCN1C(=O)c1ccc(Cl)cc1)c1ccc(-c2noc(C(F)(F)F)n2)s1 (stereo not shown) [Example 216, N-((4-(4-chlorobenzoyl)morpholin-3-yl)methyl)-5-(5-(trifluoromethyl)-1,2,4-oxadiazol-3-yl)thiophene-2-carboxamide]
22 | 83% | O=C(NCC1COCCN1C(=O)C1(c2ccccc2)CCCCC1)c1ccc(-c2noc(C(F)(F)F)n2)s1 (stereo not shown) [Example 249, N-((4-((1-phenylcyclohexyl)carbonyl)morpholin-3-yl)methyl)-5-(5-(trifluoromethyl)-1,2,4-oxadiazol-3-yl)thiophene-2-carboxamide]
